Measured values as given in ChEMBL document CHEMBL1133525, “A selenopyrylium photosensitizer for photodynamic therapy related in structure to the antitumor agent AA1 with potent in vivo activity and no long-term skin photosensitization” (J Med Chem, 2000).

assay: Partition coefficient (logP); assay type: physicochemical; settings: octanol/water

| logP | Structure (SMILES) |
| --- | --- |
| 2.5 | CN(C)c1ccc(-c2cc(-c3ccccc3)[s+]c(-c3ccc(N(C)C)cc3)c2)cc1 |
| 0 | CN(C)c1ccc(-c2cc(-c3ccccc3)[s+]c(-c3ccc(N)cc3)c2)cc1 |
| 2.4 | CN(C)c1ccc(-c2cc(-c3ccccc3)[se+]c(-c3ccc(N(C)C)cc3)c2)cc1 |

The remaining lines, values behind:

| Structure (SMILES) | logP |
| --- | --- |
| CN(C)c1ccc(-c2cc(-c3ccccc3)[se+]c(-c3ccc(N)cc3)c2)cc1 | 0.8 |
| CN(C)c1ccc(-c2cc(-c3ccccc3)[te+]c(-c3ccc(N)cc3)c2)cc1 | 0.5 |
| CN(C)c1ccc(-c2cc(-c3ccccc3)[te+]c(-c3ccc(N(C)C)cc3)c2)cc1 | 2.5 |
